The values below come from US7820703B2, “Lysophosphatidic acid receptor selective antagonists” (University of Virginia Patent Foundation, priority 2004, dated 2010).

Assay type in all cases: biochemical
Assay [1] deals with T1, human LPA3 (Homo sapiens, UniProt Q9UBY5).
T1 sequence (Q9UBY5 1-353): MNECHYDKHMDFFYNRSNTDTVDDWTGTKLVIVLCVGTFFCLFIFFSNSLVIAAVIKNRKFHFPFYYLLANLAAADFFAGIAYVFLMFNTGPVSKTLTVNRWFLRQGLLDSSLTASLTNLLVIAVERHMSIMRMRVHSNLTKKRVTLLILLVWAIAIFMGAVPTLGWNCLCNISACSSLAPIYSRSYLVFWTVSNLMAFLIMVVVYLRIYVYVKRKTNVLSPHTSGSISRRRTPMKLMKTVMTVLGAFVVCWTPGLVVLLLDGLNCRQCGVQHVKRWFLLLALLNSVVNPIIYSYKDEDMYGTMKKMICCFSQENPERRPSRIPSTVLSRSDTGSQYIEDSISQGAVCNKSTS
Put plainly: antagonism of LPA-evoked GTP[γ35S] binding at LPA3. On the set-up: expressed in transfected cells; host or cells: HEK293T cells (membranes). The conditions noted are these: for antagonist activity at LPA3, in words: GTP[γ35S] binding; for IC50: antagonism of LPA-evoked GTP[γ35S] binding. The method, then:
(§1) The appropriate receptor plasmid DNA (encoding mouse LPA1, human LPA2 or human LPA3) was mixed with equal amounts of expression plasmids (pcDNA3) encoding a mutated (C351F) rat Gi2a, cow β1, and γ2 proteins and these DNAs were used to transfect monolayers of HEK293T cells (where ‘T’ indicates expression of the SV-40 virus large T antigen) using the calcium phosphate precipitate method. After about 60 hours, cells were harvested, membranes were prepared, aliquoted and stored at −70° C. until use.
(§2) The GTP[35 γS] assay was performed as described by us previously. Membranes containing 5 ug of protein were incubated in 0.1 ml GTP-binding buffer (in mM: HEPES 50, NaCl 100, MgCl2 10, pH7.5) containing […], […], 0.1 nM GTP[35 γS] (1200 Ci/mmol), and indicated lipid(s) for 30 minutes at 30° C. Samples were analyzed for membrane-bound radionuclide using a Brandel Cell Harvester (Gaithersburg, Md.).
(§3) The X-intercept of the linear transformation is equal to the inverse log of the KI.
(§4) All compounds were characterized by ^1H and ^13C NMR, mass spectroscopy and, in certain cases, elemental analysis. A GTP[γ35S] binding assay was adapted to assess in vitro activity.
(§5) All compounds were characterized by ^1H and ^13C NMR, mass spectroscopy and, in most cases, C, H, N analyses. A membrane-based GTP[γ^35S] binding assay was adapted to assess in vitro activity at the LPA1 and LPA3 receptors.
Background: GTPγS is a poorly hydrolysed GTP analogue; its binding reports G protein activation.

The next assay has as its target T2, LPA1 receptor (Mus musculus, UniProt P61793).
T2 construct: expressed in transfected cells; host or cells: HEK293T cells (membranes)
The experiment in a line: antagonism of LPA-evoked GTP[γ35S] binding at LPA1. The conditions noted are these: for antagonist activity at LPA1, in words: GTP[γ35S] binding; for IC50: antagonism of LPA-evoked GTP[γ35S] binding; for Ki: determined by Schild regression. The method, then:
as §1, §2, §3, §4, §5

Another assay addresses mouse LPA1 (Mus musculus, UniProt P61793). The experiment in a line: GTP[γ35S] binding assay, agonist activity at LPA1. The conditions noted are these: for LPA1 Emax: LPA = 100; for EC50: transfected HEK293T cell membranes. The arrangement: expressed in transfected cells; host or cells: HEK293T cells (membranes). The method, then:
as §1
as §2, with “Md.). The C351F mutation renders the Gi2α protein resistant to inactivation by pertussis toxin or the alkylating agent N-ethylmaleimide; however in practice background binding was sufficiently low to obviate these maneuvers.” for “Md.).”
(§6) This assay isolates each recombinant LPA receptor and allows analysis of all three receptors using the same system.
(§7) Membranes prepared from these cells are used to measure GTPγ[^35S] binding as a function of test compound concentration. The resulting dose-response curves provide relative potency (EC50) and efficacy (Emax) for the test compounds.

Another assay concerns the target human LPA2 (Homo sapiens, UniProt Q9HBW0). Put plainly: GTP[γ35S] binding assay, agonist activity at LPA2. On the set-up: expressed in transfected cells; host or cells: HEK293T cells (membranes). The conditions noted are these: for LPA2 Emax: LPA = 100; for EC50: transfected HEK293T cell membranes. The method, then:
as §1, §2, §7

Assay [2] has as its target T1, human LPA3. The experiment in a line: GTP[γ35S] binding assay, agonist activity at LPA3. As to conditions: for LPA3 Emax: LPA = 100; for EC50: transfected HEK293T cell membranes. On the set-up: expressed in transfected cells; host or cells: HEK293T cells (membranes). The method, then: as §1
as §2, with “Md.). The C351F mutation renders the Gi2α protein resistant to inactivation by pertussis toxin or the alkylating agent N-ethylmaleimide; however in practice background binding was sufficiently low to obviate these maneuvers.” for “Md.).”
as §6, §7

The next assay concerns the target T3, LPP3 (PAP2b) (Homo sapiens, UniProt O14495).
T3 sequence (O14495 1-311): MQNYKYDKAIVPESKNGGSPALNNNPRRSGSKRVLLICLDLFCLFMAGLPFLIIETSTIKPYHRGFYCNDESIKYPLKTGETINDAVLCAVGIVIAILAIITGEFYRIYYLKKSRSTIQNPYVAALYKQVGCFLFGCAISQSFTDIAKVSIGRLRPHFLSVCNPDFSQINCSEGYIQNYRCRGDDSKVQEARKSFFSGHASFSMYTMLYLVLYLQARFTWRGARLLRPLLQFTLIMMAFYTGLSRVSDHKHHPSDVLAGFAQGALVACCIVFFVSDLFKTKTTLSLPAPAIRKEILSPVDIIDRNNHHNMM
Put plainly: LPP inhibition, competition with [32P]LPA, LPP3. The conditions noted are these: competition with 50 nM [32P]LPA. The method, then:
NOHPP was also tested for activity at the three cloned LPPs. Although the phosphonate head group eliminates the possibility of NOHPP acting as a substrate, it is possible that the compound could be a competitive inhibitor.

“Also recorded” adds a separate entry of the source.

Chain of human LPA2 (Q9HBW0 whole entry): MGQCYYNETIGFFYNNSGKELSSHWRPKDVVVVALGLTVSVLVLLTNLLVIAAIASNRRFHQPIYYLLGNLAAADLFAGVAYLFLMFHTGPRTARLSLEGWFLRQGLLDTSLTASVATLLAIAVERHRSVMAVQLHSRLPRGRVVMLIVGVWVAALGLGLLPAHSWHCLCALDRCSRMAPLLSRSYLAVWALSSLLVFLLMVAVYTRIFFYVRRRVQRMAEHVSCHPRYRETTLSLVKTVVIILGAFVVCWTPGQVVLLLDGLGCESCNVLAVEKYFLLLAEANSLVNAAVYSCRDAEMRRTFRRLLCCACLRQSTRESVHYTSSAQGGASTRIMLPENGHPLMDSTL
T2 sequence (P61793 whole entry): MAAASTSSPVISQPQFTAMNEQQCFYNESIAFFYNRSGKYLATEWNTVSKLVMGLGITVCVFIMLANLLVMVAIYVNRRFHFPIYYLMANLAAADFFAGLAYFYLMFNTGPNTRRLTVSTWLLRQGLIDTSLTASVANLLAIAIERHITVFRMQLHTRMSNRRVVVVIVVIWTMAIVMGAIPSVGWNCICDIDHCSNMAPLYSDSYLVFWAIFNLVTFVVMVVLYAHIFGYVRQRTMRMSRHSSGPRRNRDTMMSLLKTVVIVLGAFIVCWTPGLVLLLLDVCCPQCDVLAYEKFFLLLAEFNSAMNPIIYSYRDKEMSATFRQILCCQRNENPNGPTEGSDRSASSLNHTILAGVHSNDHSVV
Chain of mouse LPA1 (P61793 whole entry): as above

For `CCCCCCCCC=CCCCCCCCC(=O)NC(COP(=O)(O)O)Cc1ccc(OCc2cc(OCC(F)(F)F)ccn2)cc1` (stereo not shown) [Compound 57i], at human LPA3 [1], the “antagonist activity at LPA3, in words” value is recorded as “three-fold more potent” and the IC50 was 48 nM. Also, at LPA1 receptor, the “antagonist activity at LPA1, in words” value is “equipotent to 26a”; the IC50 was 84 nM; affinity was put at a Ki of 19 nM.
For `CCCCCCCC/C=C\CCCCCCCC(=O)N[C@H](COP(=O)(O)O)Cc1ccc(OCc2cc(OC)c3ccccc3n2)cc1` [Compound 57p], the figures for the IC50 on human LPA3 [1] and at LPA1 receptor were 2600 nM and more than 10000 nM, respectively.
`CCCCCCCC/C=C\CCCCCCCC(=O)N[C@H](COP(=O)(O)O)Cc1ccc(OCc2cccc(OC)n2)cc1` [Compound 57f]: the IC50 on human LPA3 [1] was 1090 nM; on LPA1 receptor it was more than 10000 nM.
With `CCCCCCCC/C=C\CCCCCCCC(=O)N[C@H](COP(=O)(O)O)C(=O)c1ccc(OCc2ccccc2)cc1` [Compound 39b], the IC50 at human LPA3 [1] was more than 10000 nM; on LPA1 receptor it was 2490 nM. For the same compound, the “antagonist activity at LPA1, in words” value on LPA1 receptor is listed as “retains potency comparable to 26”.
`CCCCCCCC/C=C\CCCCCCCC(=O)N[C@@H](COP(=O)(O)O)Cc1ccc(OCc2ccc3ccccc3n2)cc1` [Compound 57n]: the IC50 at human LPA3 [1] stood at 533 nM; at LPA1 receptor, 1430 nM.
Consider `CCCCCCCC/C=C\CCCCCCCC(=O)N[C@H](CO)COP(=O)(O)O` [VPC31143], for which, at mouse LPA1, the “agonist activity at LPA1, in words” value is on record as “more potent than 1-oleoyl LPA”.
As for `CCCCCCCC/C=C\CCCCCCCC(=O)N[C@@H](COP(=O)(O)O)C(=O)c1ccc(OCc2ccccc2)cc1` [Compound 39a], the half-inhibitory concentration (IC50) at human LPA3 [1] and at LPA1 receptor was more than 10000 nM throughout.
For the compound `CCCCCCCC/C=C\CCCCCCCC(=O)N[C@@H](COP(=O)(O)O)Cc1ccc(OCc2ncc(C)c(OC)c2C)cc1` [Compound 57l], the IC50 at human LPA3 [1] amounted to 39 nM. At LPA1 receptor, this compound showed an IC50 of 62 nM and a Ki of 28 nM.
As to `CCCCCCCCC=CCCCCCCCC(=O)NC(COP(=O)(O)O)Cc1ccc(OC(=O)c2ccc(N)cc2)cc1` (stereo not shown) [Compound 35p], the “antagonist activity at LPA3, in words” value at human LPA3 [1] is on record as “devoid of activity”. In addition, the “antagonist activity at LPA1, in words” value at LPA1 receptor is recorded as “devoid of activity”.
As for `CCCCCCCC/C=C\CCCCCCCC(=O)N[C@H](CN)COP(=O)(O)O` [VPC12178], on mouse LPA1, the “agonist activity at LPA1, in words” value is listed as “more potent than 1-oleoyl LPA”; the “LPA1 Emax” value was found to be 98.7; a half-maximal response (EC50) required 4.9 nM. In addition, at human LPA2, the “LPA2 Emax” value is recorded as 103.2 and the EC50 was 50.3 nM. On human LPA3 [2], the “LPA3 Emax” value was 102.9 and the EC50 was determined as 684 nM.
Consider `CCCCCCCC/C=C\CCCCCCCC(=O)N[C@@H](COP(=O)(O)O)Cc1ccc(OCc2cc(OCC)ccn2)cc1` [Compound 57h], for which the IC50 on human LPA3 [1] stood at 39 nM. On LPA1 receptor, this compound displayed a concentration for half-maximal inhibition (IC50) of 143 nM and an inhibition constant (Ki) of 26 nM.
On LPA1 receptor, `CCCCCCCC/C=C\CCCCCCCC(=O)N[C@@H](COP(=O)(O)O)Cc1ccc(OCc2cc(OCCC)ccn2)cc1` [Compound 57j] registered an IC50 of 141 nM and a Ki of 64 nM.
Take `CCCCCCCC/C=C\CCCCCCCC(=O)N[C@H](C)COP(=O)(O)O` [VPC12086]: on mouse LPA1, the “agonist activity at LPA1, in words” value was “more potent and efficacious than LPA; also recorded: more potent than 1-oleoyl LPA”; the “LPA1 Emax” value was found to be 107.6; the response was half-maximal at 3.4 nM (EC50). At human LPA2, the “LPA2 Emax” value worked out at 95.2 and the EC50 turned out to be 18.3 nM. On human LPA3 [2], the “LPA3 Emax” value was determined as 93.4 and a half-maximal effect (EC50) was put at 113 nM.
With `CCCCCC=CCC=CCCCCCCCC(=O)NC(COP(=O)(O)O)Cc1ccc(OCc2ccccc2)cc1` (stereo not shown) [Compound 29e], the “antagonist activity at LPA1, in words” value on LPA1 receptor is “potency comparable to lead compound 26”.
For `CCCCCCCC/C=C\CCCCCCCC(=O)N[C@@H](CCP(=O)(O)O)Cc1ccc(OCc2ncc(C)c(OC)c2C)cc1` [Compound 63d], at human LPA3 [1], the “antagonist activity at LPA3, in words” value is “improved potency over lead compound 26a” and the half-maximal inhibitory concentration (IC50) was 150 nM. Besides, at LPA1 receptor, the “antagonist activity at LPA1, in words” value is “no antagonism” and the IC50 was more than 10000 nM.
“1-acyl, 2-hydroxyl-sn-glycerol-3-phosphate [LPA, reference compound]” registered an EC50 at human LPA2 of 6.8 nM. Also, at human LPA3 [2], the “LPA3 Emax” value is reported as 100 and the EC50 was determined as 262 nM.
As for `CCCCCCCC/C=C\CCCCCCCC(=O)N[C@H](CC)COP(=O)(O)O` [VPC12109], at mouse LPA1, the “LPA1 Emax” value is given as 66.8 and the midpoint of the response, the EC50, lay at 35.8 nM. Moreover, on human LPA2, the “LPA2 Emax” value was determined as 92.6 and a half-maximal response (EC50) required 162 nM. Moreover, at human LPA3 [2], the “LPA3 Emax” value amounted to 83.5 and the EC50 was 1080 nM.
Regarding `CCCCCCCC/C=C\CCCCCCCC(=O)N[C@@H](C)COP(=O)(O)O` [VPC12101], on mouse LPA1, the “LPA1 Emax” value is reported as 48.1 and the EC50 stood at 2900 nM. At human LPA2, the “LPA2 Emax” value is 6.9 and the half-maximal effective concentration (EC50) was more than 5000 nM. Besides, on human LPA3 [2], the “LPA3 Emax” value worked out at 9.7 and the EC50 is more than 5000 nM.
For `CCCCCCCC/C=C\CCCCCCCC(=O)N[C@H](COP(=O)(O)O)Cc1ccc(OCc2ncc(C)c(OC)c2C)cc1` [Compound 57m], the IC50 at human LPA3 [1] turned out to be 561 nM; at LPA1 receptor it was 3690 nM.
For `CCCCCCCC/C=C\CCCCCCCC(=O)N[C@@H](CN)COP(=O)(O)O` [Compound 12048], on mouse LPA1, the “LPA1 Emax” value worked out at 9.4 and the EC50 was more than 5000 nM. Moreover, at human LPA2, the “LPA2 Emax” value stood at 36.4 and the EC50 is more than 5000 nM. Moreover, on human LPA3 [2], the “LPA3 Emax” value came to 3.8 and the EC50 is more than 5000 nM.
In the case of `CCCCCCCC/C=C\CCCCCCCC(=O)NCCC(=O)P(=O)(O)O` [VPC12060], the “inhibition of LPP3” value at LPP3 (PAP2b) is given as “markedly better at the PAP2b (LPP3) than PAP2a (LPP1)”.

Broadly, the IC50 is the concentration needed to halve the response being measured. As usually defined, the Ki is the dissociation constant of the complex between target and ligand, obtained from inhibition or displacement. Read a low Ki as higher affinity. One may read the EC50 as the concentration at which the effect is half-maximal. Low values mean greater potency, high ones weaker potency.
